PubChem BioAssay (NCI)
Values joined by “and” are separate entries in the source; they are usually repeats but may differ in a detail not shown here. Equal entries are not always repeated.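 Growth conditions: 96-well plates. Treatment: test compound, 48 hours, 5 concentrations. Analysis: linear interpolation between bracketing concentrations; unreached endpoints set to highest concentration. GI50 marks 50% less growth. TGI: total growth inhibition.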

Test system: MDA-MB-468 breast
Assay: DTP human tumour cell line panel, 48 h

SMILES | GI50 | TGI
CCOC(=O)Oc1cc2c(c(OC)c1OC)-c1ccc(OC)c(=O)cc1C(NC(C)=O)CC2 (centres undefined) | < 0.01 µM | > 100 µM
Nc1ccc(C2=CC(c3ccc(Cl)cc3)N3C=CSC3=N2)cc1 (centres undefined) | 1.9 µM | 4.29 µM
NC(=O)c1cc([N+](=O)[O-])c(Cl)c([N+](=O)[O-])c1Cl | 0.188 µM | 0.436 µM
CC1C(C)N(C(=O)CCl)c2ccccc2N1C(=O)CCl (centres undefined) | 0.296 µM | 1.21 µM
CCN(CC)CCCNc1cc(OC)cc2nc3cc(Cl)ccc3nc12 | 1.15 µM | 2.67 µM
COC(=O)[C@H](Cc1cnc[nH]1)NC(=O)[C@@H](NC(=O)Nc1cc(C(F)(F)F)cc(C(F)(F)F)c1)C(C)C | 11.1 µM | 25.6 µM
CCC(C)Nc1ccc(N)cc1 (centres undefined) | 2.05 µM | 6.51 µM
CNC(=O)c1c(NC(=O)c2ccc(C(C)(C)C)cc2)sc2c(CN(C)C)c(O)ccc12 | 1.67 µM | 3.36 µM
CNC(=O)c1cc(Oc2ccc(NC(=O)Nc3ccc(Cl)c(C(F)(F)F)c3)c(F)c2)ccn1 | 2.06 µM and 1.67 µM | 5.58 µM and 7.93 µM
COc1ccc2c(c1OC)CO[C@@H]2[C@H]1c2c(cc3c(c2OC)OCO3)CCN1S(=O)(=O)c1cn(C)cn1 | 0.324 µM | 5.93 µM
COc1ncc(Nc2ncc([C@@H](C)N3CCN(S(C)(=O)=O)CC3)cc2-c2nc(C)nc(N)n2)cc1F | < 0.0148 µM | 0.16 µM
Cc1ccccc1NC(=O)c1sc2nc(C)c(C(=O)/C=C/c3ccccc3)cc2c1N | 0.927 µM | 1.82 µM
COCc1c(-c2cc3cc(C)cc(OC)c3s2)c2c(N)ncnn2c1CN1CCNC(=O)C1 | 1.76 µM | 7.46 µM
Cc1ccc(/C=N/Nc2nc(Nc3ccccc3)nc(-n3nc(C)cc3C)n2)cc1 | 3.63 µM | 17.1 µM
NCCCC[C@@H]1NC(=O)[C@H](CC(=O)O)NC(=O)CNC(=O)[C@H](CCCN=C(N)N)NC(=O)[C@@H](N)CSSC[C@@H](C(=O)O)NC(=O)[C@H](CC(=O)O)NC(=O)[C@@H]2CCCN2C(=O)CNC1=O | > 100 µM | > 100 µM
CC(C)(C)c1ccc(Oc2ccc(N)cn2)cc1 | 28.3 µM | > 100 µM
CCc1ccc(CCC(=O)Nc2ncc(Cc3ccc(Cl)cc3)s2)o1 | 0.342 µM | 
COc1cccc(CC(C)=C(c2ccc(OCCN3CCCCC3)cc2)c2ccc(OCCN3CCCCC3)cc2)c1 | 0.641 µM | 2.71 µM
COc1ccc(CN2c3ccccc3Sc3ccccc32)c(C(F)(F)F)c1 | 0.275 µM | 13.6 µM
O=C(Nc1ccccc1)Nc1ccc2cc3ccc(NC(=O)Nc4ccccc4)cc3nc2c1 | 0.579 µM | 1.92 µM

SMILES | GI50 | TGI
COc1cc(/C=N/Nc2ncnc3c2cnn3-c2ccccc2)ccc1O | 4.93 µM | > 25 µM
COc1cc(Nc2ncc(-c3ccccc3)o2)cc(OC)c1 | 7.94 µM | > 25 µM
O=C(N/N=C\c1ccc(N(CCCl)CCCl)cc1[N+](=O)[O-])c1cccnc1 | > 100 µM | > 100 µM
CNC(=O)c1c(NC(=O)c2ccc(C(C)(C)C)cc2)sc2c1CCC(=O)C2 | 0.411 µM | 2.07 µM
COC12C=C/C(=C(/C(=O)OCc3ccccn3)C(=O)CCCCCCCCC3(OC)C=C/C(=C(/C(=O)OCc4ccccn4)C(=O)CCCCCCCC1)O3)O2 | 0.314 µM | 1.15 µM
CC1=C(SCCC(=O)OC(C[Se]C2=C(C)C(=O)c3ccccc3C2=O)C(=O)NCCCCCC(=O)OCc2ccccc2)C(=O)c2ccccc2C1=O (centres undefined) | 3 µM | 8.54 µM
CCC(C)[C@H](NC(=O)Nc1cc(C(F)(F)F)cc(C(F)(F)F)c1)C(=O)N[C@@H](Cc1cn(C)cn1)C(=O)OC (some centres undefined) | 0.476 µM | 0.971 µM
CC(N)(Cc1c[nH]c2cccc(F)c12)C(=O)O (centres undefined) | > 1000 µM | > 1000 µM
Cc1cccc2nc3ccccc3c(Nc3ccc(NS(C)(=O)=O)cc3)c12 | 8.53 µM | 26.3 µM
COc1ccc(C/C(=C(\C)c2ccc(OCCN3CCCC3)cc2)c2ccc(OCCN3CCCC3)cc2)cc1 | 1.62 µM | 3.14 µM
COc1cc(/C=C/C(=O)/C=C/c2ccc(-n3ccnc3C)cc2)ccc1O | 2.06 µM | 4.72 µM
CC1(C)CNc2cc(NC(=O)c3cccnc3NCc3ccncc3)ccc21 | 12.7 µM | 66.2 µM
COc1cc(OC)cc(-c2n/c(=C\c3c(O)[nH]c4ccc(OC)cc34)cc3c2=Nc2ccccc2-3)c1 | 12.1 µM | 29.8 µM
COc1ccc2c(c1)[nH]c(=O)c1c3cccc(F)c3cn21 | 0.187 µM | 0.487 µM
CC1=C(c2ccccc2)C(O)(c2ccccc2)C(C)C1=O (centres undefined) | 4.28 µM | 40.3 µM
CCN(Cc1ccccc1)C1CCN(Cc2cc(Br)ccc2O)CC1 | 15.1 µM | 40.8 µM
Nc1nc([Se])c2ncn(C3OC(CO)C(O)C3O)c2n1 (centres undefined) | 50.2 µM | > 100 µM
CCCCCCCCCCCCCCCCCCn1cc[n+](C)c1 | 0.215 µM | 1.64 µM
COc1ccc2c(c1)c(-c1nc(-c3c[nH]c4ccncc34)cs1)cn2C | 0.442 µM | 1.85 µM
CC1=C2[C@@H](CC1)[C@]1(C)O[C@@](C(C)C)(C[C@H]1OC(=O)CO)[C@H]2OC(=O)C1CC1c1ccccc1 (some centres undefined) | 13.2 µM | 29.5 µM
